Source: US5770434A, “Soluble peptides having constrained, secondary conformation in solution and method of making same” (IXSYS Incorporated, priority 1995, dated 1998)

What was measured:
[1] = system: ligand-binding protein (in this example, an antibody); test: Panning of phage-displayed peptide library against a ligand-binding protein (antibody), protein A-coated dishes; conditions: phage-expressed peptide, compared with the general phage population
[2] = Solubility of the secreted expressed peptide
Excerpt: The oligonucleotide encoding this peptide is cloned into a vector that allowed secretion of the expressed peptide. The peptide […]

In the case of “CDDQYYTDHEQGKCEVALYYTG [SEQ. ID. NO.: 63, peptide selected from phage library]”, the ligand binding affinity [1] is reported as “high affinity”.
With “TQSKCSTDHWLGYIEYFIMCTY [SEQ. ID. NO.: 62]” the ligand binding affinity [1] was “highest affinity” and the “soluble at a concentration of” value [2] was at least 4 mg/mL.
